From patent US4263291A, “3,7-Disubstituted-3-cephem-4-carboxylic acid compounds and processes for the preparation thereof” (Fujisawa Pharmaceutical Co., Ltd., priority 1976, dated 1981)
In brackets after ≈: the same amount, converted by molar mass. Read-outs that look alike come from different tables or passages of the source.

Experiments:
Assay in all cases: In vitro antibacterial activity, two-fold agar-plate dilution method
Type in all cases: cell-based
Staph. aureus 209P JC-1 = settings: Staphylococcus aureus, read-out: MIC (minimal inhibitory concentration)
Method: (§1) In vitro antibacterial activity was determined by the two-fold agar-plate dilution method as described below.
(§2) One loopful of an overnight culture of each test strain in Trypticase-soy broth (10^8 viable cells per ml.) was streaked on heart infusion agar (HI-agar) containing graded concentrations of antibiotics, and the minimal inhibitory concentration (MIC) was expressed in terms of μg/ml. aft er incubation at 37° C. for 20 hours.

E. coli NIHJ JC-2 = settings: Escherichia coli, read-out: MIC (minimal inhibitory concentration)
Method: as §1, §2

Sh. flexneri 2a = settings: Shigella flexneri, HI-agar, 37° C., 20 hours, read-out: MIC (minimal inhibitory concentration)
Method: as §1, §2

Sal. enteritidis = settings: Salmonella enterica, HI-agar, 37° C., 20 hours, read-out: MIC (minimal inhibitory concentration)
Method: as §1, §2

[1] = Staph. aureus 209P JC-1, HI-agar, 37° C., 20 hours
[2] = NIHJJC2, E. coli NIHJ JC-2, HI-agar, 37° C., 20 hours

Row | SMILES | MIC (Staph. aureus 209P JC-1; [1]) [µg/mL] | MIC (E. coli NIHJ JC-2; [2]) [µg/mL] | MIC (Sh. flexneri 2a) [µg/mL] | MIC (Sal. enteritidis) [µg/mL] | MIC (Staph. aureus 209P JC-1; 209P, 20 h) [µg/mL] | MIC (E. coli NIHJ JC-2; NIHJJC2, 20 h) [µg/mL]
1 | CO/N=C(\C(=O)NC1C(=O)N2C(C(=O)O)=C(CSc3nnnn3C)CSC12)c1csnn1 (stereo not drawn) [Test Compound (1), 7-[2-Methoxyimino-2-(1,2,3-thiadiazol-4-yl)acetamido]-3-(1-methyl-1H-tetrazol-5-yl)thiomethyl-3-cephem-4-carboxylic acid (syn isomer)] | 3.13 (≈ 6.29 µM) | 0.78 (≈ 1.57 µM) | 1.56 (≈ 3.14 µM) | 0.2 (≈ 0.402 µM) | – | –
2 | CO/N=C(/C(=O)NC1C(=O)N2C(C(=O)O)=C(CSc3nnnn3C)CSC12)c1csnn1 (stereo not drawn) [Test Compound (2), 7-[2-Methoxyimino-2-(1,2,3-thiadiazol-4-yl)acetamido]-3-(1-methyl-1H-tetrazol-5-yl)thiomethyl-3-cephem-4-carboxylic acid (anti isomer)] | – | 25 (≈ 50.2 µM) | 12.5 (≈ 25.1 µM) | 6.25 (≈ 12.6 µM) | 12.5 (≈ 25.1 µM) | –
3 | Cn1nnnc1SCC1=C(C(=O)O)N2C(=O)C(NC(=O)/C(=N\O)c3cnsn3)C2SC1 (stereo not drawn) [Test Compound (3), 7-[2-Hydroxyimino-2-(1,2,5-thiadiazol-3-yl)acetamido]-3-(1-methyl-1H-tetrazol-5-yl)thiomethyl-3-cephem-4-carboxylic acid (syn isomer)] | 0.78 (≈ 1.61 µM) | 3.13 (≈ 6.47 µM) | 0.39 (≈ 0.807 µM) | 1.56 (≈ 3.23 µM) | – | –
4 | Cn1nnnc1SCC1=C(C(=O)O)N2C(=O)C(NC(=O)/C(=N\O)c3cnsc3)C2SC1 (stereo not drawn) [Test Compound (4), 7-[2-Hydroxyimino-2-(isothiazol-4-yl)acetamido]-3-(1-methyl-1H-tetrazol-5-yl)thiomethyl-3-cephem-4-carboxylic acid (syn isomer)] | 0.39 (≈ 0.808 µM) | – | 0.39 (≈ 0.808 µM) | 0.78 (≈ 1.62 µM) | – | 1.56 (≈ 3.23 µM)
